Assay results published in ChEMBL document CHEMBL5291721, “A preclinical secondary pharmacology resource illuminates target-adverse drug reaction associations of marketed drugs” (Nat Commun, 2023).

How the values were obtained:
[1] = biological target: T1, 5-hydroxytryptamine receptor 3A (Homo sapiens, UniProt P46098); format: functional
T1 sequence (P46098 whole entry): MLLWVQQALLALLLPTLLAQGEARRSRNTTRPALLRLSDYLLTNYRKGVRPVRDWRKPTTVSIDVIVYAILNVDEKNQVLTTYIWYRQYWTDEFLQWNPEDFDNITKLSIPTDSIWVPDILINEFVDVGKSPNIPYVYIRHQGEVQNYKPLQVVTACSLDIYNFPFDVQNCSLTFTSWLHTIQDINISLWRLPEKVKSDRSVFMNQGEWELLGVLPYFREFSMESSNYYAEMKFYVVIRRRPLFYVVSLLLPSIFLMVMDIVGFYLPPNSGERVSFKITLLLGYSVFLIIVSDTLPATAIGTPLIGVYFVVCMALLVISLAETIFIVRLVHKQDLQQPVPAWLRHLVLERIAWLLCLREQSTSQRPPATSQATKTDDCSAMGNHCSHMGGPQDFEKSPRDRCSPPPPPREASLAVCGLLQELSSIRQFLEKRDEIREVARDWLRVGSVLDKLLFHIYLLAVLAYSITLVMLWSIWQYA

[2] = biological target: T2, Muscarinic acetylcholine receptor M2 (Homo sapiens, UniProt P08172); format: functional, cell-based
T2 sequence (P08172 whole entry): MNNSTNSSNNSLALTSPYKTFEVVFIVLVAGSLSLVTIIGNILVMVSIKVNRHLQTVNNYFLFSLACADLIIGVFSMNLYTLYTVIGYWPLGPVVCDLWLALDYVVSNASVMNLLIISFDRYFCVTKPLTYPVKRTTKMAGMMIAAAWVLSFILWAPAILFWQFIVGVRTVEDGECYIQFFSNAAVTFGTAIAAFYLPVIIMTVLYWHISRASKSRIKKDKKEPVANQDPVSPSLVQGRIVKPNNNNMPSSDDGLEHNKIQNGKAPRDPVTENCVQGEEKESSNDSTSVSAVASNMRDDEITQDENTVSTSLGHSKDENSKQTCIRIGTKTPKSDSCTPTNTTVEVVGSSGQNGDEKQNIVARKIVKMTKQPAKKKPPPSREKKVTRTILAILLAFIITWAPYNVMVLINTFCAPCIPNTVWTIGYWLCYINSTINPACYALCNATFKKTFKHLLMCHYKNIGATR

Progesterone receptor = biological target: T3, Progesterone receptor (Homo sapiens, UniProt P06401); format: functional
T3 sequence (P06401 whole entry): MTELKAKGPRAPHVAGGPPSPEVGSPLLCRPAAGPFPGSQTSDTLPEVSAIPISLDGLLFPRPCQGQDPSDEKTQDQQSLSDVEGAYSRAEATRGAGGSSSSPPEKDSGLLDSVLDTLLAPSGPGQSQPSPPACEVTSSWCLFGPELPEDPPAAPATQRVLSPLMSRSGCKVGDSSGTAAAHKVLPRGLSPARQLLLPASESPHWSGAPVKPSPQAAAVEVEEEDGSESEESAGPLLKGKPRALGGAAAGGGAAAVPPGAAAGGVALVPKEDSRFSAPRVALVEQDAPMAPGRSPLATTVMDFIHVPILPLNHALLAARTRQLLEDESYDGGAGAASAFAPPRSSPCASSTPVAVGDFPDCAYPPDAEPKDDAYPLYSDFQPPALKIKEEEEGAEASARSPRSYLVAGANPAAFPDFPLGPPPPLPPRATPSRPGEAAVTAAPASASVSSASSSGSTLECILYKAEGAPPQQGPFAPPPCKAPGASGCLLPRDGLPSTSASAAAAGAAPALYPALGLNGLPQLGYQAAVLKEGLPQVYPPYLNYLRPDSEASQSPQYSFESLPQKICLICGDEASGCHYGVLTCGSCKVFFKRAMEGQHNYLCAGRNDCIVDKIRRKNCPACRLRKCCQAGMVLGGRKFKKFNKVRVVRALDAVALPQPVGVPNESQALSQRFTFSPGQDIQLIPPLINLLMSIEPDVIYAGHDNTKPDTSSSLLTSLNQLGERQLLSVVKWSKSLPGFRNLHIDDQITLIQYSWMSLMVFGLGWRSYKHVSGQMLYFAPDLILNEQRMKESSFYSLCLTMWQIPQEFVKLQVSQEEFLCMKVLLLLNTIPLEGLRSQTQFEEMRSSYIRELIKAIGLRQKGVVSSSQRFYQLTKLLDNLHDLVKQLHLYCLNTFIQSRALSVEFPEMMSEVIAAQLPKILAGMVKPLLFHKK

[3] = biological target: Voltage-gated inwardly rectifying potassium channel KCNH2 (Homo sapiens, UniProt Q12809); format: functional
[4] = biological target: T4, Cholecystokinin receptor type A (Homo sapiens, UniProt P32238)
T4 sequence (P32238 whole entry): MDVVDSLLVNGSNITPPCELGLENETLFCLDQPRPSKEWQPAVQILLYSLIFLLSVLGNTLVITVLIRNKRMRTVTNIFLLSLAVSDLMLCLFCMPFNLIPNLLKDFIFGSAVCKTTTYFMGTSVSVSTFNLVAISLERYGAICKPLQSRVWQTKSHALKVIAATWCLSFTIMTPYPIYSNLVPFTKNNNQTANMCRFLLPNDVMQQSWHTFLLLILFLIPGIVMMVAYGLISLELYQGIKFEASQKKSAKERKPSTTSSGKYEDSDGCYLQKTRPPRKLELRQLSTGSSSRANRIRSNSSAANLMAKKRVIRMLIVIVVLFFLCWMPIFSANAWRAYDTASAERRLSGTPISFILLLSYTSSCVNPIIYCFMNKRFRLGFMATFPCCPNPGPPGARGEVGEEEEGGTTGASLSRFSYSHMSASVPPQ

[5] = biological target: T5, Alpha-2A adrenergic receptor (Homo sapiens, UniProt P08913); format: functional, cell-based
T5 sequence (P08913 whole entry): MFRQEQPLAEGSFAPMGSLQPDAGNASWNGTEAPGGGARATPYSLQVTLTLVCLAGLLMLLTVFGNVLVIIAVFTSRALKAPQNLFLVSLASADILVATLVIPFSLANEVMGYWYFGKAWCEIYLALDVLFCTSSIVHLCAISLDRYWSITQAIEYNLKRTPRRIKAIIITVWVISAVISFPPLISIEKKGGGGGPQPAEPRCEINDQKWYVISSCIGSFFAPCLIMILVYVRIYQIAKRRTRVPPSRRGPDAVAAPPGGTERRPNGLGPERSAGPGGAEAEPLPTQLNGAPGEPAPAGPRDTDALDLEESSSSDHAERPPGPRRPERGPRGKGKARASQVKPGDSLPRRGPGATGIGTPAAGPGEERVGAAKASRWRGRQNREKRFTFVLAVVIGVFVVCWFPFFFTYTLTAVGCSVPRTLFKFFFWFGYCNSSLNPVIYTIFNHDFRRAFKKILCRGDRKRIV

Mu-type opioid receptor = Mu-type opioid receptor (Homo sapiens, UniProt P35372); assay: biochemical; format: functional
Note: assay procedure not described here.

Chain of Mu-type opioid receptor (P35372 whole entry): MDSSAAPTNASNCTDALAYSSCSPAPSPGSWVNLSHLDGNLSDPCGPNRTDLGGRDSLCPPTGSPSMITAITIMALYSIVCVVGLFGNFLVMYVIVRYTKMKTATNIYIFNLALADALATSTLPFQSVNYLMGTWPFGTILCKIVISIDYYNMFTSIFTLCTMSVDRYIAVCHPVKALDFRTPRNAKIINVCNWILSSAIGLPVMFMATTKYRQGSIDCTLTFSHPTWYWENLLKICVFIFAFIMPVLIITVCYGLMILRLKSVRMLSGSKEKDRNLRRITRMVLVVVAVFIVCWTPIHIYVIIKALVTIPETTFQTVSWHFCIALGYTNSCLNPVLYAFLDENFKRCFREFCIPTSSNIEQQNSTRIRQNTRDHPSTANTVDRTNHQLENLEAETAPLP
Chain of Voltage-gated inwardly rectifying potassium channel KCNH2 (Q12809 whole entry): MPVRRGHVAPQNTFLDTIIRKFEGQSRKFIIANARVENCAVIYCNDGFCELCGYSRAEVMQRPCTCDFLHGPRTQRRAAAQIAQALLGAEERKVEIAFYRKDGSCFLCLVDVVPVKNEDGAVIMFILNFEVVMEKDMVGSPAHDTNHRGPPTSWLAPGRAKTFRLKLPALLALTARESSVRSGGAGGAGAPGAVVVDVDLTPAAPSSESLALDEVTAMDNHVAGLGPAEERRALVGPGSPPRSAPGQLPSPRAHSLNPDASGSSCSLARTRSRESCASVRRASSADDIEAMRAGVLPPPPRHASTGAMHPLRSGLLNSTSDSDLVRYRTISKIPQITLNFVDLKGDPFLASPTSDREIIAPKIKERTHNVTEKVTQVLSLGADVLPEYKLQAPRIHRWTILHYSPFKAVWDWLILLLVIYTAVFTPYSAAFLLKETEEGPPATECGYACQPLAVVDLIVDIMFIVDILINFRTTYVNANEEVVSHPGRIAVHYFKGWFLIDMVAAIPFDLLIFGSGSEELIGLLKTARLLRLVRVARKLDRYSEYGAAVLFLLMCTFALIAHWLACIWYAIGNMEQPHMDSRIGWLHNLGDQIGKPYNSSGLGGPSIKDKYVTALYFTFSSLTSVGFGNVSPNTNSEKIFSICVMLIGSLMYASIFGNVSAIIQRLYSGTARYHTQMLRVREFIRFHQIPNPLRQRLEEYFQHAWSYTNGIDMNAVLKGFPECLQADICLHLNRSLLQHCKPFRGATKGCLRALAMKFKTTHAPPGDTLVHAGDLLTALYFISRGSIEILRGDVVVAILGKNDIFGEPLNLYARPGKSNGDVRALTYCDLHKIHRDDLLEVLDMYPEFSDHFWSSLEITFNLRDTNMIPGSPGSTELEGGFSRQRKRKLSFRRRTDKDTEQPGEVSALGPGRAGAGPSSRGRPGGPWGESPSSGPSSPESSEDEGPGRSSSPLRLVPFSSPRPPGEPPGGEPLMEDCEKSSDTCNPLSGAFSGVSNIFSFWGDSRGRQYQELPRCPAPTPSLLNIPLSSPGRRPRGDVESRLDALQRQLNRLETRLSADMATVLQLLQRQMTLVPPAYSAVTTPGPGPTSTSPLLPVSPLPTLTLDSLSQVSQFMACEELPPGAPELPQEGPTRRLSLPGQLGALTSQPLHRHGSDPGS

Row | SMILES | AC50 [1] [µM] | AC50 [2] [µM] | AC50 (Progesterone receptor) [µM] | AC50 [3] [µM] | AC50 [4] [µM] | AC50 [5] [µM] | AC50 (Mu-type opioid receptor) [µM]
1 | Oc1ccc2c(c1)[C@@]13CCCC[C@@]1(O)[C@@H](C2)N(CC1CCC1)CC3 [BUTORPHANOL] | > 30 | > 30 | > 30 | 12 | > 30 | > 30 | 
2 | Cn1cnc2c(F)c(Nc3ccc(Br)cc3Cl)c(C(=O)NOCCO)cc21 [SELUMETINIB] |  |  |  | > 30 |  |  | 
3 | CN(C(=O)c1c(O)c2ccccc2n(C)c1=O)c1ccccc1 [ROQUINIMEX] |  |  | 29 |  |  |  | 
4 | O=C(O)CCCCC1CCSS1 (stereo not drawn) [LIPOIC ACID, ALPHA] |  |  |  | > 30 |  |  | 
5 | Cc1ncc2n1-c1ccc(Cl)cc1C(c1ccccc1F)=NC2 [MIDAZOLAM] | > 30 | > 10 |  | > 30 | > 30 | > 10 | 
6 | C=C1/C(=C\C=C2/CCC[C@]3(C)[C@@H]([C@H](C)/C=C/[C@@H](O)C4CC4)CC[C@@H]23)C[C@@H](O)C[C@@H]1O [CALCIPOTRIENE] | > 30 | > 30 | 20 | > 30 | > 30 | > 30 | > 30
7 | C#CCOc1ccc(N)cc1C(=O)NCCCC [PARSALMIDE] | > 30 | > 30 | > 30 | > 30 | > 30 | > 30 | > 30
8 | CCC(COC(=O)c1cc(OC)c(OC)c(OC)c1)(c1ccccc1)N(C)C (configuration not stated) [TRIMEBUTINE] | > 30 | 1.2 | > 30 | 1.7 | > 30 | > 30 | 0.2
9 | COc1ccc(-c2noc(CC(=O)O)c2-c2ccc(OC)cc2)cc1 [MOFEZOLAC] | > 30 | > 30 | > 30 | > 30 | > 30 | > 30 | > 30
10 | C/C(=C\C(=O)OCCCCCCCCC(=O)O)C[C@@H]1OC[C@H](C[C@@H]2O[C@H]2[C@@H](C)[C@H](C)O)[C@@H](O)[C@H]1O [MUPIROCIN] | > 30 | > 10 | > 10 | > 30 | > 10 | > 10 | 
11 | Cn1c(=O)cc(N2CCC[C@@H](N)C2)n(Cc2ccccc2C#N)c1=O [ALOGLIPTIN] | > 10 |  |  |  | > 30 |  | 
12 | CCN(CC)CCN1C(=O)CN=C(c2ccccc2F)c2cc(Cl)ccc21 [FLURAZEPAM] | 20 | > 10 |  | 0.896 | > 30 | > 10 | 
13 | CC(=O)OCC(=O)[C@@]1(O)[C@H](C)C[C@H]2[C@@H]3CCC4=CC(=O)C=C[C@]4(C)[C@@]3(F)[C@@H](O)C[C@@]21C [DEXAMETHASONE ACETATE] | > 30 | > 10 |  | > 30 | > 30 | > 10 | 
14 | O=C1CN=C(c2ccccn2)c2cc(Br)ccc2N1 [BROMAZEPAM] | > 30 | > 10 | > 10 | > 30 | > 10 | > 10 | 
15 | COc1ccc2nc3cc(Cl)ccc3c(Nc3cc(CN4CCCC4)c(O)c(CN4CCCC4)c3)c2n1 [PYRONARIDINE] | > 30 | 15 |  | 0.28 | > 30 | > 30 | > 30
16 | CCCCCC(=O)O[C@]1(C(C)=O)CC[C@H]2[C@@H]3CCC4=CC(=O)CC[C@]4(C)[C@H]3CC[C@@]21C [HYDROXYPROGESTERONE CAPROATE] | > 30 | > 30 |  | > 30 | > 30 | > 30 | > 30
17 | CC(=O)[C@@]1(O)CC[C@H]2[C@@H]3C=C(Cl)C4=CC(=O)[C@@H]5C[C@@H]5[C@]4(C)[C@H]3CC[C@@]21C [CYPROTERONE] | > 30 | > 10 |  | > 30 | > 10 | > 10 | > 30
18 | CCN1CCCC1CNC(=O)c1cc(S(=O)(=O)CC)c(N)cc1OC (configuration not stated) [AMISULPRIDE] | > 30 | > 30 | > 30 |  |  | > 30 | > 30
19 | Nc1cc(-c2ccncc2)c[nH]c1=O [INAMRINONE] | > 30 | > 10 |  | > 30 | > 30 | > 10 | 
20 | COc1cc2ncnc(Nc3ccc(F)c(Cl)c3)c2cc1NC(=O)/C=C/CN1CCCCC1 [DACOMITINIB ANHYDROUS] |  | > 10 | > 10 |  |  |  | 
21 | CC(=O)[C@]1(O)Cc2c(O)c3c(c(O)c2[C@@H](O[C@H]2C[C@H](N)[C@H](O)[C@H](C)O2)C1)C(=O)c1ccccc1C3=O [IDARUBICIN] | 13 |  |  | 20.7 | > 10 |  | > 30
22 | COc1cc2c(cc1OC)C(CCc1ccc(Cl)cc1)N(C)CC2 (configuration not stated) [METHOPHOLINE] | > 30 | > 10 | > 30 |  | > 30 | > 10 | 
23 | Nc1c2ccccc2nc2ccccc12 [AMINACRINE] |  |  |  | 12 |  |  | 
24 | CCOC(=O)O[C@]1(C(=O)OCCl)CC[C@H]2[C@@H]3CCC4=CC(=O)C=C[C@]4(C)[C@H]3[C@@H](O)C[C@@]21C [LOTEPREDNOL ETABONATE] | > 30 | > 30 |  | > 30 | > 30 | > 30 | > 30
25 | OCc1cc(C(O)CNCCCCCCOCCCCc2ccccc2)ccc1O (configuration not stated) [SALMETEROL] | > 30 |  | > 30 | 8.1 | > 30 | > 10 | 
